The source of these data is patent publication US7923461B2, “TNF-α production inhibitors” (Santen Pharmaceutical Co., Ltd., priority 2000, dated 2011).

Structures can show the parent of a compound that is named as a salt.

One data set deals with TNF-α production. Nature of the data set: Inhibitory effects on TNF-α production induced by lipopolysaccharide (LPS) stimulation, in vivo test. Details: species or system rat. Conditions: female rats, plasma TNF-α (ELISA) two hours after LPS; for inhibition in vivo at 10 mg/kg / inhibition in vivo at 3 mg/kg: Rattus norvegicus, 2 h, read-out: Inhibition rate (%) of TNF-α production; for inhibition in vivo at 10 mg/kg: oral administration of 10 mg/kg immediately after LPS to footpad; for inhibition in vivo at 3 mg/kg / Inhibition rate (%) of TNF-α production: oral administration of 3 mg/kg immediately after LPS to footpad. As for the experimental part: Inhibitory effects on TNF-α production induced by lipopolysaccharide (LPS) stimulation were studied by in vivo tests according to the method of Tsuji et al. (Inflamm res. 46 (1997) 193-198).
Female rats (five per group), body weight of about 200 g, about eight weeks old, were used as test animals. LPS from Salmonella was dissolved in physiological saline to prepare an LPS solution (1 mg/ml). Each test substance was dissolved or uniformly suspended in a 1% methylcellulose solution to give test substance-preparation liquids.
The above-mentioned LPS solution (0.5 ml/kg) was administered to a footpad of the rat. Immediately after the LPS administration, the test substance-preparation liquid (containing 10 mg/kg or 3 mg/kg test substance) was orally administered. Two hours after the LPS administration, blood was collected from abdominal aorta and was centrifuged at 4° C. and 3000 rpm for ten minutes. TNF-α levels in the obtained plasma were measured with a rat TNF-α-specific ELISA kit. TNF-α was not observed in the plasma with respect to an LPS-non-administered group (control).
Inhibition rates of TNF-α production of the test substances were determined by the following equation. Inhibition rate (%)=[(A−B)/A]×100 A: TNF-α level in plasma of test substance-nonadministered group B: TNF-α level in plasma of test substance-administered group (Results)

Usually melting point stands for the temperature, or range, at which the solid turns liquid. Compound `CC(CNC(=O)N(CCN(C)C(=O)OC(C)(C)C)CCC12CC3CC(CC(C3)C1)C2)Cc1ccncc1` (single isomer, unassigned; (+)) [Compound No. 1-139, (+)-1-[2-(1-Adamantyl)ethyl]-1-[2-[N-(t-butoxycarbonyl)-N-methylamino]ethyl]-3-[2-methyl-3-(4-pyridyl)propyl]urea] showed a melting point of 122.7 to 123.7 °C. Also, the inhibition in vivo at 10 mg/kg in the data set on TNF-α production amounted to 94.1%.
Compound `COCCN(CCC12CC3CC(CC(C3)C1)C2)C(=O)NCCCc1ccncc1` [Compound No. 1-18, 1-[2-(1-Adamantyl)ethyl]-1-(2-methoxyethyl)-3-[3-(4-pyridyl)propyl]urea] came in with a melting point of 101.5 to 104.5 °C. Moreover, the inhibition in vivo at 10 mg/kg with TNF-α production was 78.9%.
`O=C(NCCCc1ccncc1)N(CCC12CC3CC(CC(C3)C1)C2)CC1CC1` [Compound No. 1-22, 1-[2-(1-Adamantyl)ethyl]-1-cyclopropylmethyl-3-[3-(4-pyridyl)propyl]urea] gave a melting point of 123 to 125 °C. Moreover, the inhibition in vivo at 10 mg/kg in the data set on TNF-α production is 87%.
Compound `O=C(NCCCc1ccncc1)N(CCC(F)(F)F)CCC12CC3CC(CC(C3)C1)C2` [Compound No. 1-24, 1-[2-(1-Adamantyl)ethyl]-3-[3-(4-pyridyl)propyl]-1-(3,3,33-trifluoropropyl)urea] came in with a melting point of 107.5 to 109 °C. For the same compound, the inhibition in vivo at 10 mg/kg in the data set with TNF-α production worked out at 95.8%.
Turning to `CC=CCN(CCC12CC3CC(CC(C3)C1)C2)C(=O)NCCCc1ccncc1` [Compound No. 1-25, 1-[2-(1-Adamantyl)ethyl]1-(2-butenyl)-3-[3-(4-pyridyl)propyl]urea], the melting point was in the range of 89.5 to 93.5 °C. Further, the inhibition in vivo at 10 mg/kg in the data set with TNF-α production stood at 89%.
The compound `O=C(NCCCc1ccncc1)N(CCC12CC3CC(CC(C3)C1)C2)Cc1cccs1` [Compound No. 1-27, 1-[2-(1-Adamantyl)ethyl]-3-[3-(4-pyridyl)propyl]-1-(2-thienyl)methylurea] yielded a melting point of 142.5 to 144.5 °C. Further, the inhibition in vivo at 10 mg/kg in the data set on TNF-α production stood at 81.3%.
`CC(C)=CCN(CCC12CC3CC(CC(C3)C1)C2)C(=O)NCCCc1ccncc1` [Compound No. 1-31, 1-[2-(1-Adamantyl)ethyl]-1-(3-methyl-2-butenyl)-3-[3-(4-pyridyl)propyl]urea] returned a melting point of 93 to 96 °C. Moreover, the inhibition in vivo at 10 mg/kg with TNF-α production was determined as 92.6%.
`CCCCCCCCCCN(CCC12CC3CC(CC(C3)C1)C2)C(=O)NCCCc1ccncc1` [Compound No. 1-32, 1-[2-(1-Adamantyl)ethyl]-1-decyl-3-[3-(4-pyridyl)propyl]urea] returned a melting point of 75 to 76 °C. In the data set with TNF-α production, the inhibition in vivo at 10 mg/kg is 62.4%.
The compound `O=C(NCCCc1ccncc1)N(CC=Cc1ccccc1)CCC12CC3CC(CC(C3)C1)C2` [Compound No. 1-34, 1-[2-(1-Adamantyl)ethyl]-1-cinnamyl-3-[3-(4-pyridyl)propyl]urea] gave a melting point of 130 to 134.5 °C. Moreover, the inhibition in vivo at 10 mg/kg with TNF-α production came out at 70.8%.
In turn, `O=C(NCCCc1ccncc1)N(CCC12CC3CC(CC(C3)C1)C2)Cc1ccco1` [Compound No. 1-42, 1-[2-(1-Adamantyl)ethyl]-1-furfuryl-3-[3-(4-pyridyl)propyl]urea] gave a melting point of 128 to 130 °C. In the data set on TNF-α production, the inhibition in vivo at 10 mg/kg is 86.7%.
For the compound `O=C(NCCCc1ccncc1)N(CCC12CC3CC(CC(C3)C1)C2)Cc1ccccc1` [Compound No. 1-43, 1-[2-(1-Adamantyl)ethyl]-1-benzyl-3-[3-(4-pyridyl)propyl]urea], the melting point was 130.5 to 135 °C. In addition, the inhibition in vivo at 10 mg/kg in the data set on TNF-α production was 67.6%.
For `CCCCCN(CCC12CC3CC(CC(C3)C1)C2)C(=O)CSCCc1ccncc1` [Compound No. 2-18, 2-[2-(4-Pyridyl)ethylthio]acetic acid N-[2-(1-adamantyl)ethyl]-N-pentylamide], the inhibition in vivo at 3 mg/kg with TNF-α production is 87.3%.
Turning to `CCCCCN(CCC12CC3CC(CC(C3)C1)C2)C(=O)CCCCCc1ccncc1` [Compound No. 2-20, 6-(4-Pyridyl)caproic acid N-[2-(1-adamantyl)ethyl]-N-pentylamide], the inhibition in vivo at 3 mg/kg in the data set on TNF-α production was 82.1%.
Same read-out and setting: in the case of `CCCCCN(CCC12CC3CC(CC(C3)C1)C2)C(=O)C(N)CSCc1ccncc1` (centres unmarked) [Compound No. 3-4, 2-Amino-3-(4-pyridylmethylthio)propionic acid N-[2-(1-adamantyl)ethyl]-N-pentylamide dihydrochloride] it was 76.1%.
Regarding `CCCCCN(CCC12CC3CC(CC(C3)C1)C2)C(=O)NCCCc1cc[n+](C)cc1` [Compound No. 4-1, 4-[3-[3-[2-(1-Adamantyl)ethyl]-3-pentylureido]propyl]-1-methylpyridinium iodide], the inhibition in vivo at 3 mg/kg in the data set with TNF-α production came to 42.8%.
For the compound `CCCN(CCCC12CC3CC(CC(C3)C1)C2)C(=O)OCCCc1ccncc1` [Compound No. 5-3, 3-(4-Pyridyl)propyl N [3-(1-adamantyl)propyl]-N-propylcarbamate], the “Inhibition rate (%) of TNF-α production” value in the data set with TNF-α production is reported as 49.4%.
Turning to `O=C(OCCCc1ccncc1)N(CCC(F)(F)F)CCC12CC3CC(CC(C3)C1)C2` [Compound No. 5-4, 3-(4-Pyridyl)propyl N-[2-(1-adamantyl)ethyl]-N-(3,3,3-trifluoropropyl)carbamate], the inhibition in vivo at 3 mg/kg with TNF-α production amounted to 62.6%.
As for `CN(CCN(CCC12CC3CC(CC(C3)C1)C2)C(=O)OCCCc1ccncc1)C(=O)OC(C)(C)C` [Compound No. 5-5, 3-(4-Pyridyl)propyl N-[2-(1-adamantyl)ethyl]-N-[2-[N′-(tbutoxycarbonyl)-N′-methylamino]ethyl]carbamate], the “Inhibition rate (%) of TNF-α production” value with TNF-α production is given as 42.8%.
Turning to `CCCCCN(CCC12CC3CC(CC(C3)C1)C2)C(=O)OCC(C)Cc1ccncc1` (centres unmarked) [Compound No. 5-6, 2-Methyl-3-(4-pyridyl)propyl N-[2-(1-adamantyl)ethyl]-N-pentylcarbamate], the inhibition in vivo at 3 mg/kg in the data set with TNF-α production stood at 41.7%.
As for `O=C1CCN(CCC23CC4CC(CC(C4)C2)C3)C(=O)N1CCCc1ccncc1` [Compound No. 6-1, 1-[2-(1-Adamantyl)ethyl]-3-[3-(4-pyridyl)propyl]hexahydro-2,4-pyrimidinedione hydrochloride], the inhibition in vivo at 10 mg/kg in the data set on TNF-α production stood at 50.5%.
The same measure, in the same setting: to `CCCCCN(CCC12CC3CC(CC(C3)C1)C2)C(=S)NCCCc1ccncc1` [Compound No. 7-1, 1-[2-(1-Adamantyl)ethyl]-1-pentyl-3-[3-(4-pyridyl)propyl]thiourea] belongs 71.5%.
With `CN(CCN(CCC12CC3CC(CC(C3)C1)C2)C(=O)CCCCc1ccncc1)C(=O)OCc1ccccc1` [Compound No. 10-16, 5-(4-Pyridyl)valeric acid N-[2-(1-adamantyl)ethyl]-N-[2-(N′-benzyloxycarbonyl-N′-methylamino)ethyl]amide], the “Inhibition rate (%) of TNF-α production” value with TNF-α production worked out at 62.8%.
Regarding `CN(CCN(CCC12CC3CC(CC(C3)C1)C2)C(=O)CCCCc1ccncc1)C(=O)CC(C)(C)C` [Compound No. 10-17, 5-(4-Pyridyl)valeric acid N-[2-(1-adamantyl)ethyl]-N-[2-[N′-(3,3-dimethylbutyryl)-N′-methylamino]ethyl]amide], in the data set with TNF-α production, the “Inhibition rate (%) of TNF-α production” value was 53.8%.
In the case of `CN(CCCc1ccncc1)C(=O)N(C)CCC12CC3CC(CC(C3)C1)C2` [Compound No. 11-1, [2-(1-Adamantyl)ethyl]-1,3-dimethyl-3-[3-(4-pyridyl)propyl]urea], the inhibition in vivo at 10 mg/kg in the data set on TNF-α production turned out to be 50.8%.
Consider `CCCCCN(CCC12CC3CC(CC(C3)C1)C2)C(=O)NCCC(O)c1ccncc1` (centres unmarked) [Compound No. 14-1, 1-[2-(1-Adamantyl)ethyl]-3-[3-hydroxy-3-(4-pyridyl)propyl]-1-pentylurea], for which the inhibition in vivo at 3 mg/kg in the data set on TNF-α production stood at 36.3%.
`CCCCCN(CCC12CC3CC(CC(C3)C1)C2)C(=O)NCCCc1cc[n+]([O-])cc1` [Compound No. 16-1, 4-[3-[3-[2-(1-Adamantyl)ethyl]-3-pentylureido]propyl]pyridine N-oxide]: the inhibition in vivo at 3 mg/kg with TNF-α production was 74.3%.
Consider `CCCCCN(CCC12CC3CC(CC(C3)C1)C2)C(=O)CNCCc1ccncc1` [Compound No. 18-1, 2-[2-(4-Pyridyl)ethylamino]acetic acid N-[2-(1-adamantyl)ethyl]1-N-pentylamide], for which, in the data set on TNF-α production, the “Inhibition rate (%) of TNF-α production” value was 55.7%.
`CCCCCN(CCC12CC3CC(CC(C3)C1)C2)C(=O)COCCc1ccncc1` [Compound No. 18-3, 2-[2-(4-Pyridyl)ethoxy]acetic acid N-[2-(1-adamantyl)ethyl]-N-pentylamide]: in the data set on TNF-α production, the inhibition in vivo at 3 mg/kg was found to be 56.6%.
For `CCCCCN(CCC12CC3CC(CC(C3)C1)C2)C(=O)NCCCc1ccnc(C)c1` [Compound No. 27-1, 1-[2-(1-Adamantyl)ethyl]-3-[3-[4-(2-methyl)pyridyl]propyl]-1-pentylurea], the “Inhibition rate (%) of TNF-α production” value in the data set on TNF-α production is on record as 68.6%.
On to `CCCCCN(CCC12CC3CC(CC(C3)C1)C2)C(=O)NCCC(=O)c1ccncc1` [Compound No. 31-1, 1-[2-(1-Adamantyl)ethyl]-3-[3-oxo-3-(4-pyridyl)propyl]-1-pentylurea], for which, in the data set with TNF-α production, the inhibition in vivo at 3 mg/kg is 46.8%.
